Reference: PubChem BioAssay (NCI)
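How tested: cells in 96-well plates exposed to compound for 48 hours at five concentrations. GI50: concentration for 50% inhibition of growth. TGI is the concentration that stops growth completely.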

Columns and labels:
Test in all cases: NCI-60 cell line screen, 48 h
ACHN renal = system: ACHN renal
UACC-257 melanoma = system: UACC-257 melanoma
EKVX NSCLC = system: EKVX NSCLC
M14 melanoma = system: M14 melanoma
BT-549 breast = system: BT-549 breast
RXF 393 renal = system: RXF 393 renal
CAKI-1 renal = system: CAKI-1 renal
U251 CNS = system: U251 CNS
HOP-92 NSCLC = system: HOP-92 NSCLC
COLO 205 colon = system: COLO 205 colon
NCI-H460 lung = system: NCI-H460 lung
K-562 leukemia = system: K-562 leukemia
SN12C renal = system: SN12C renal
UACC-62 melanoma = system: UACC-62 melanoma
IGROV1 ovarian = system: IGROV1 ovarian
TK-10 renal = system: TK-10 renal
MCF7 breast = system: MCF7 breast
MDA-MB-435 = system: MDA-MB-435
HOP-62 NSCLC = system: HOP-62 NSCLC
NCI-H522 lung = system: NCI-H522 lung
SF-295 CNS = system: SF-295 CNS
CCRF-CEM leukemia = system: CCRF-CEM leukemia
OVCAR-8 ovarian = system: OVCAR-8 ovarian
HCT-116 colon = system: HCT-116 colon
SK-MEL-5 melanoma = system: SK-MEL-5 melanoma
NCI-H226 lung = system: NCI-H226 lung
SF-539 CNS = system: SF-539 CNS
NCI-H23 lung = system: NCI-H23 lung

O=C(N/N=C/c1ccc(-c2ccc(O)cc2)s1)c1[nH]c2ccc(Br)cc2c1-c1ccccc1
TGI (ACHN renal): 10.9 µM | GI50 (UACC-257 melanoma): 10.5 µM | TGI (UACC-257 melanoma): 28 µM | GI50 (EKVX NSCLC): 4.04 µM | TGI (EKVX NSCLC): 14.8 µM | GI50 (M14 melanoma): 2.75 µM | TGI (M14 melanoma): 10.5 µM | GI50 (BT-549 breast): 2.95 µM | TGI (BT-549 breast): 9.97 µM | GI50 (RXF 393 renal): 1.92 µM | TGI (RXF 393 renal): 4.56 µM | GI50 (CAKI-1 renal): 3.46 µM | TGI (CAKI-1 renal): 13.8 µM | GI50 (U251 CNS): 3.63 µM | TGI (U251 CNS): 15.5 µM | GI50 (HOP-92 NSCLC): 2.98 µM | TGI (HOP-92 NSCLC): 9.12 µM | GI50 (COLO 205 colon): 7.12 µM | TGI (COLO 205 colon): 23 µM | GI50 (NCI-H460 lung): 2.72 µM | TGI (NCI-H460 lung): 7.99 µM | GI50 (K-562 leukemia): 2.95 µM | TGI (K-562 leukemia): > 100 µM | GI50 (SN12C renal): 3.48 µM | TGI (SN12C renal): 13 µM | GI50 (UACC-62 melanoma): 2.65 µM | TGI (UACC-62 melanoma): 10 µM | GI50 (IGROV1 ovarian): 3.45 µM | TGI (IGROV1 ovarian): 12.9 µM | GI50 (TK-10 renal): 5.05 µM | TGI (TK-10 renal): 19.3 µM | GI50 (MCF7 breast): 2.57 µM | TGI (MCF7 breast): 10.9 µM | GI50 (MDA-MB-435): 2.99 µM | TGI (MDA-MB-435): 10.1 µM | GI50 (HOP-62 NSCLC): 6.32 µM | TGI (HOP-62 NSCLC): 23.6 µM | GI50 (NCI-H522 lung): 3.42 µM | TGI (NCI-H522 lung): 14.3 µM | GI50 (SF-295 CNS): 2.2 µM | TGI (SF-295 CNS): 5.28 µM | GI50 (CCRF-CEM leukemia): 2.46 µM | TGI (CCRF-CEM leukemia): > 100 µM | GI50 (OVCAR-8 ovarian): 4.22 µM | TGI (OVCAR-8 ovarian): 17 µM | GI50 (HCT-116 colon): 3.09 µM | TGI (HCT-116 colon): 11.7 µM | GI50 (SK-MEL-5 melanoma): 1.87 µM | TGI (SK-MEL-5 melanoma): 4.16 µM | GI50 (NCI-H226 lung): 5.63 µM | TGI (NCI-H226 lung): 20.9 µM | GI50 (SF-539 CNS): 2.76 µM | TGI (SF-539 CNS): 8.43 µM | GI50 (NCI-H23 lung): 3.25 µM | TGI (NCI-H23 lung): 11.2 µM
